# ± gives the standard deviation of the averaged measurements.
# Test system: HeLa
# Test: cell viability (CellTiter-Glo) relative to median of lowest-dilution wells of all drugs (fraction); higher = more viable cells
# Description: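 HeLa control and CRISPR DDX11 knockout cells were seeded in 384-well plates and incubated for 72 h with each of 64 […] drugs at six concentrations. Viability was read with CellTiter-Glo and normalised to the median of the lowest (6th) dilution wells of all drugs. Two biological replicates (BR1, BR2) are averaged; the concentration unit is not stated.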
# [1] = drug concentration (unit not stated): 0.01, genotype: DDX11 knockout
# [2] = drug concentration (unit not stated): 0.01, genotype: control (DDX11 wild type)
# [3] = drug concentration (unit not stated): 0.04, genotype: DDX11 knockout
# [4] = drug concentration (unit not stated): 0.04, genotype: control (DDX11 wild type)
# [5] = drug concentration (unit not stated): 0.12, genotype: DDX11 knockout
# [6] = drug concentration (unit not stated): 0.12, genotype: control (DDX11 wild type)
# [7] = drug concentration (unit not stated): 0.37, genotype: DDX11 knockout
# [8] = drug concentration (unit not stated): 0.37, genotype: control (DDX11 wild type)
# [9] = drug concentration (unit not stated): 1.11, genotype: DDX11 knockout
# [10] = drug concentration (unit not stated): 1.11, genotype: control (DDX11 wild type)
# [11] = drug concentration (unit not stated): 3.33, genotype: DDX11 knockout
# [12] = drug concentration (unit not stated): 3.33, genotype: control (DDX11 wild type)
# [13] = drug concentration (unit not stated): 10, genotype: DDX11 knockout
# [14] = drug concentration (unit not stated): 10, genotype: control (DDX11 wild type)
SMILES,cell viability [1],cell viability [2],cell viability [3],cell viability [4],cell viability [5],cell viability [6],cell viability [7],cell viability [8],cell viability [9],cell viability [10],cell viability [11],cell viability [12],cell viability [13],cell viability [14],"cell viability (drug concentration (unit not stated): 30, genotype: DDX11 knockout)","cell viability (drug concentration (unit not stated): 30, genotype: control (DDX11 wild type))"
COc1cccc2c1C(=O)c1c(O)c3c(c(O)c1C2=O)C[C@@](O)(C(=O)CO)C[C@@H]3O[C@H]1C[C@H](N)[C@H](O)[C@H](C)O1 [Doxorubicin (Adriamycin)],1.02 ± 0.03,0.9786 ± 0.0019,0.923 ± 0.087,0.986 ± 0.0043,0.75 ± 0.18,0.96 ± 0.41,0.328 ± 0.4,0.679 ± 0.6,0.024 ± 0.0057,0.153 ± 0.2,0.0172 ± 0.0017,0.0179 ± 0.006,–,–,–,–
CC(C)C[C@H](NC(=O)[C@H](CCc1ccccc1)NC(=O)CN1CCOCC1)C(=O)N[C@@H](Cc1ccccc1)C(=O)N[C@@H](CC(C)C)C(=O)[C@@]1(C)CO1 [Carfilzomib],0.6 ± 0.63,1.11 ± 0.022,0.512 ± 0.7,1.1 ± 0.07,0.414 ± 0.57,1.02 ± 0.14,0.0394 ± 0.035,0.385 ± 0.37,0.00988 ± 0.0031,0.0166 ± 0.0079,–,–,–,–,–,–
COc1cc2c(cc1O)CCN[C@]21CS[C@@H]2c3c(OC(C)=O)c(C)c4c(c3[C@H](COC1=O)N1[C@@H]2[C@H]2c3c(cc(C)c(OC)c3O)C[C@@H]([C@@H]1O)N2C)OCO4 [Trabectedin (Yondelis)],1.061 ± 0.0098,1.05 ± 0.0085,1.01 ± 0.044,1 ± 0.031,1 ± 0.034,1.02 ± 0.034,0.9874 ± 0.0059,1.02 ± 0.025,0.913 ± 0.14,1.034 ± 0.0075,–,–,–,–,–,–
CC(C)(C)Cn1c(N)nc2ccc(-c3[nH]c(C(C)(C)C)nc3-c3ccc(F)cc3)nc21,–,–,0.937 ± 0.044,0.991 ± 0.022,0.96 ± 0.11,1.03 ± 0.022,0.942 ± 0.088,0.988 ± 0.15,0.921 ± 0.072,1.02 ± 0.1,0.84 ± 0.03,1.06 ± 0.15,0.737 ± 0.061,1.03 ± 0.25,–,–
O=c1[nH]c(=O)n(C2CCCO2)cc1F (stereo not given) [Ftorafur (Tegafur)],0.991 ± 0.11,0.978 ± 0.05,0.985 ± 0.063,0.953 ± 0.027,1 ± 0.057,1.01 ± 0.014,1.02 ± 0.016,1.01 ± 0.026,1 ± 0.016,1.01 ± 0.028,1.013 ± 0.0085,1.03 ± 0.014,–,–,–,–
COc1cc([C@@H]2c3cc4c(cc3[C@@H](O[C@@H]3O[C@@H]5CO[C@@H](C)O[C@H]5[C@H](O)[C@H]3O)[C@H]3COC(=O)[C@H]23)OCO4)cc(OC)c1O [Etoposide (VP-16)],–,–,0.993 ± 0.062,0.992 ± 0.036,0.913 ± 0.1,0.985 ± 0.015,0.737 ± 0.18,0.978 ± 0.18,0.477 ± 0.24,0.842 ± 0.39,0.165 ± 0.14,0.35 ± 0.33,0.0411 ± 0.033,0.0423 ± 0.033,–,–
CC(=O)O[C@H]1C(=O)[C@@]2(C)[C@H]([C@H](OC(=O)c3ccccc3)[C@]3(O)C[C@H](OC(=O)[C@H](O)[C@@H](NC(=O)c4ccccc4)c4ccccc4)C(C)=C1C3(C)C)[C@]1(OC(C)=O)CO[C@@H]1C[C@@H]2O [Paclitaxel (Taxol)],0.44 ± 0.12,0.515 ± 0.11,0.26 ± 0.017,0.379 ± 0.11,0.203 ± 0.0074,0.148 ± 0.021,0.2001 ± 0.00037,0.169 ± 0.016,0.197 ± 0.031,0.2 ± 0.042,0.179 ± 0.033,0.139 ± 0.0065,–,–,–,–
O=C(O)C1(C(=O)O)CCC1.[NH2-].[NH2-].[Pt+2] [Carboplatin],–,–,–,–,0.981 ± 0.017,1.013 ± 0.0026,0.909 ± 0.031,1.03 ± 0.039,0.829 ± 0.04,1.05 ± 0.14,0.425 ± 0.056,0.904 ± 0.45,0.165 ± 0.021,0.331 ± 0.16,0.0472 ± 0.0054,0.0483 ± 0.0055
Nc1ncn([C@@H]2O[C@H](CO)[C@@H](O)[C@H]2O)c(=O)n1 [Azacitidine],–,–,1.03 ± 0.04,1.03 ± 0.044,1.03 ± 0.019,1.04 ± 0.0078,1.01 ± 0.046,1.05 ± 0.021,1.0191 ± 0.00066,1.05 ± 0.013,1.05 ± 0.063,1.03 ± 0.028,0.872 ± 0.12,0.89 ± 0.28,–,–
O=C(Nc1c[nH]nc1-c1nc2ccc(CN3CCOCC3)cc2[nH]1)NC1CC1 [AT9283],1.03 ± 0.023,0.988 ± 0.066,0.94 ± 0.015,0.939 ± 0.053,1.07 ± 0.076,1 ± 0.042,1.04 ± 0.046,1.07 ± 0.069,0.769 ± 0.4,0.799 ± 0.063,0.469 ± 0.41,0.504 ± 0.12,–,–,–,–
COc1ncc(-c2ccc3nccc(-c4ccnnc4)c3c2)cc1NS(=O)(=O)c1ccc(F)cc1F,0.657 ± 0.037,0.774 ± 0.23,0.57 ± 0.044,0.661 ± 0.17,0.467 ± 0.073,0.528 ± 0.19,0.33 ± 0.046,0.458 ± 0.18,0.326 ± 0.042,0.416 ± 0.12,0.304 ± 0.04,0.373 ± 0.12,–,–,–,–
COCC[n+]1c2c(n(Cc3cnccn3)c1C)C(=O)c1ccccc1C2=O [YM155 (Sepantronium bromide)],0.0145 ± 0.002,0.015 ± 0.0031,0.0143 ± 0.0008,0.0164 ± 0.0034,0.0146 ± 0.00021,0.0177 ± 0.0016,0.0135 ± 0.00019,0.0166 ± 0.0028,0.0136 ± 0.00081,0.0158 ± 0.0023,–,–,–,–,–,–
CN(Cc1cnc2nc(N)nc(N)c2n1)c1ccc(C(=O)N[C@@H](CCC(=O)O)C(=O)O)cc1 [Abitrexate (Methotrexate)],0.864 ± 0.26,0.969 ± 0.64,0.79 ± 0.24,0.723 ± 0.34,0.772 ± 0.21,0.665 ± 0.35,0.725 ± 0.17,0.606 ± 0.33,0.462 ± 0.08,0.58 ± 0.31,–,–,–,–,–,–
CCN(CCO)CCCOc1ccc2c(Nc3cc(CC(=O)Nc4cccc(F)c4)[nH]n3)ncnc2c1 [AZD1152-HQPA (Barasertib)],–,–,0.927 ± 0.032,0.985 ± 0.18,0.912 ± 0.066,1.01 ± 0.22,0.883 ± 0.1,0.97 ± 0.28,0.888 ± 0.051,0.964 ± 0.21,0.831 ± 0.027,0.957 ± 0.25,0.813 ± 0.064,0.953 ± 0.23,–,–

# Reference: the supplement of paper PMC8092582
